According to patent US9914730B2, “Azaquinazoline inhibitors of Atypical protein Kinase C” (Ignyta, Inc., priority 2012, dated 2018):

Each compound was assayed against T1, full-length human PKCι (Homo sapiens, UniProt P41743) (assay: PKCι IC50 IMAP assay, full-length PKCι at 150 μM ATP). Details: read-out: IC50 in IMAP assay against full length PKCi at 150 μM ATP.
T1 construct: Recombinant, full-length human PKCι expressed in Sf21 insect cells is also commercially available; purchased; host or cells: Sf21 insect cells
T1 sequence (P41743 1-596): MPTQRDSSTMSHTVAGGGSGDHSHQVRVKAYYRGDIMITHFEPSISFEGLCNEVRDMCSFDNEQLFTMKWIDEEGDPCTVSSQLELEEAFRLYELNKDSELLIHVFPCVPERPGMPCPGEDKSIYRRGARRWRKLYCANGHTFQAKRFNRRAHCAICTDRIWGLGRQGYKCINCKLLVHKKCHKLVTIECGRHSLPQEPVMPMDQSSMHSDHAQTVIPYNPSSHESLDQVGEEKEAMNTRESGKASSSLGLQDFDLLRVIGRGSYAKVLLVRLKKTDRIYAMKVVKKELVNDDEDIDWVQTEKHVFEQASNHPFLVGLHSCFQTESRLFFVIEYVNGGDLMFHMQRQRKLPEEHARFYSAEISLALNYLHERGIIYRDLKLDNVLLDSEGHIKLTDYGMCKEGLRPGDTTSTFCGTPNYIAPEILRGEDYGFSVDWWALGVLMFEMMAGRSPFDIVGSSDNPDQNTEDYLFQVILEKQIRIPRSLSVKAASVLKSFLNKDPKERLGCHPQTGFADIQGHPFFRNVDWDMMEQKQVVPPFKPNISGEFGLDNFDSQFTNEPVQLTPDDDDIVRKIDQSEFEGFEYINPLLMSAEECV
Format: biochemical
Method in brief: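 IC50 from IMAP FP (ex 485/em 530 nm) after 60 min room-temperature reaction in pH 7.5 tris buffer with 9 mM MgCl2 and 0.9 mM DTT. Enzyme: full-length Sf21-expressed PKCι (~15 pM); ATP 150 μM, five times KM^APP; FAM-labelled peptide 100 nM; DMSO 4%.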

Row | SMILES | IC50 [µM]
1 | CN1CCC(Sc2nc(-c3ccnc(Nc4c(F)cccc4F)c3)nc3cncc(C4CC4)c23)CC1 [Example 2128, {4-[5-Cyclopropyl-4-(1-methyl-piperidin-4-ylsulfanyl)-pyrido[3,4-d]pyrimidin-2-yl]-pyridin-2-yl}-(2,6-difluoro-phenyl)-amine] | 0.1 to 1
2 | CN1CCC(N(C)c2nc(-c3ccnc(Nc4ncc(F)cc4F)c3)nc3cncc(C4CC4)c23)CC1 [Example 2129, {5-Cyclopropyl-2-[2-(3,5-difluoro-pyridin-2-ylamino)-pyridin-4-yl]-pyrido[3,4-d]pyrimidin-4-yl}-methyl-(1-methyl-piperidin-4-yl)-amine] | < 0.1
3 | Cn1cc(-c2ccc(Nc3cc(-c4nc(N5CCNCC5)c5c(C6CC6)cncc5n4)ccn3)c(F)c2)cn1 [Example 2130, [4-(5-Cyclopropyl-4-piperazin-1-yl-pyrido[3,4-d]pyrimidin-2-yl)-pyridin-2-yl]-[2-fluoro-4-(1-methyl-1H-pyrazol-4-yl)-phenyl]-amine] | < 0.1
4 | c1ccc(Nc2cc(-c3nc(N4CC5CNCC5C4)c4c(C5CC5)cncc4n3)ccn2)cc1 (stereo not shown) [Example 2131, {4-[5-Cyclopropyl-4-(hexahydro-pyrrolo[3,4-c]pyrrol-2-yl)-pyrido[3,4-d]pyrimidin-2-yl]-pyridin-2-yl}-phenyl-amine] | < 0.1
5 | FC(F)(F)c1nc2cc(Nc3cc(-c4nc(N5CCNCC5)c5c(C6CC6)cncc5n4)ccn3)ccc2o1 [Example 2133, [4-(5-Cyclopropyl-4-piperazin-1-yl-pyrido[3,4-d]pyrimidin-2-yl)-pyridin-2-yl]-(2-trifluoromethyl-benzooxazol-5-yl)-amine] | < 0.1
6 | CN(c1nc(-c2ccnc3[nH]c(C(F)(F)F)cc23)nc2c(Cl)ncc(C3CC3)c12)C1CCNCC1 [Example 2136, [8-Chloro-5-cyclopropyl-2-(2-trifluoromethyl-1H-pyrrolo[2,3-b]pyridin-4-yl)-pyrido[3,4-d]pyrimidin-4-yl]-methyl-piperidin-4-yl-amine] | < 0.1
7 | CN(c1nc(-c2ccnc(Nc3ccc4ccccc4n3)c2)nc2cncc(C3CC3)c12)C1CCNCC1 [Example 2138, {5-Cyclopropyl-2-[2-([D4],[D3]uinolin-2-ylamino)-pyridin-4-yl]-pyrido[3,4-d]pyrimidin-4-yl}-methyl-piperidin-4-yl-amine] | < 0.1
8 | O[C@@H]1Cc2ccccc2[C@@H]1Nc1cc(-c2nc(N3CCNCC3)c3c(C4CC4)cncc3n2)ccn1 [Example 2140, (1S,2R)-1-[4-(5-Cyclopropyl-4-piperazin-1-yl-pyrido[3,4-d]pyrimidin-2-yl)-pyridin-2-ylamino]-indan-2-ol] | < 0.1
9 | O[C@H]1Cc2ccccc2[C@@H]1Nc1cc(-c2nc(N3CCNCC3)c3c(C4CC4)cncc3n2)ccn1 [Example 2141, (1S,2S)-1-[4-(5-Cyclopropyl-4-piperazin-1-yl-pyrido[3,4-d]pyrimidin-2-yl)-pyridin-2-ylamino]-indan-2-ol] | < 0.1
10 | O[C@@H]1Cc2ccccc2[C@H]1Nc1cc(-c2nc(N3CCNCC3)c3c(C4CC4)cncc3n2)ccn1 [Example 2143, (1R,2R)-1-[4-(5-Cyclopropyl-4-piperazin-1-yl-pyrido[3,4-d]pyrimidin-2-yl)-pyridin-2-ylamino]-indan-2-ol] | < 0.1
11 | c1cc(-c2nc(N3CCNCC3)c3c(C4CCC4)cncc3n2)c2cc(C3CCC3)[nH]c2n1 [Example 2147, 5-Cyclobutyl-2-(2-cyclobutyl-1H-pyrrolo[2,3-b]pyridin-4-yl)-4-piperazin-1-yl-pyrido[3,4-d]pyrimidine] | < 0.1
12 | Fc1cnc(Nc2cc(-c3nc(N4CCNCC4)c4c(C5CC5)cnc(Cl)c4n3)ccn2)c(F)c1 [Example 2148, [4-(8-Chloro-5-cyclopropyl-4-piperazin-1-yl-pyrido[3,4-d]pyrimidin-2-yl)-pyridin-2-yl]-(3,5-difluoro-pyridin-2-yl)-amine] | < 0.1
13 | Cn1cnc2ccc(Nc3cc(-c4nc(N5CCNCC5)c5c(C6CC6)cncc5n4)ccn3)cc21 [Example 2149, [4-(5-Cyclopropyl-4-piperazin-1-yl-pyrido[3,4-d]pyrimidin-2-yl)-pyridin-2-yl]-(3-methyl-3H-benzoimidazol-5-yl)-amine] | < 0.1
14 | CN(c1nc(-c2ccnc(Nc3ncc(Cl)cc3F)c2)nc2cncc(C3CC3)c12)C1CCNCC1 [Example 2151, {2-[2-(5-Chloro-3-fluoro-pyridin-2-ylamino)-pyridin-4-yl]-5-cyclopropyl-pyrido[3,4-d]pyrimidin-4-yl}-methyl-piperidin-4-yl-amine] | < 0.1

The next lines start with the values.

Row | IC50 [µM] | SMILES
15 | < 0.1 | Fc1cnc(Nc2cc(-c3nc(N4CC5CNCC5C4)c4c(C5CC5)cncc4n3)ccn2)c(F)c1 (stereo not shown) [Example 2132, {4-[5-Cyclopropyl-4-(hexahydro-pyrrolo[3,4-c]pyrrol-2-yl)-pyrido[3,4-d]pyrimidin-2-yl]-pyridin-2-yl}-(3,5-difluoro-pyridin-2-yl)-amine]
16 | < 0.1 | FC(F)(F)c1cc2c(-c3nc(SC4CCNCC4)c4c(C5CC5)cncc4n3)ccnc2[nH]1 [Example 2134, 5-Cyclopropyl-4-(piperidin-4-ylsulfanyl)-2-(2-trifluoromethyl-1H-pyrrolo[2,3-b]pyridin-4-yl)-pyrido[3,4-d]pyrimidine]
17 | < 0.1 | c1ccc2c(c1)CCC(Nc1cc(-c3nc(N4CCNCC4)c4c(C5CC5)cncc4n3)ccn1)C2 (stereo not shown) [Example 2137, [4-(5-Cyclopropyl-4-piperazin-1-yl-pyrido[3,4-d]pyrimidin-2-yl)-pyridin-2-yl]-(1,2,3,4-tetrahydro-naphthalen-2-yl)-amine]
18 | < 0.1 | CN(CC1CCNCC1)c1nc(-c2ccnc3[nH]c(C(F)(F)F)cc23)nc2cncc(C3CC3)c12 [Example 2139, [5-Cyclopropyl-2-(2-trilfuoromethyl-1H-pyrrolo[2,3-b]pyridin-4-yl)-pyrido[3,4-d]pyrimidin-4-yl]-methyl-piperidin-4-ylmethyl-amine]
19 | 0.1 to 1 | O[C@H]1Cc2ccccc2[C@H]1Nc1cc(-c2nc(N3CCNCC3)c3c(C4CC4)cncc3n2)ccn1 [Example 2142, (1R,2S)-1-[4-(5-Cyclopropyl-4-piperazin-1-yl-pyrido[3,4-d]pyrimidin-2-yl)-pyridin-2-ylamino]-indan-2-ol]
20 | < 0.1 | Fc1cccc(F)c1-c1cc2c(-c3nc(N4CCNCC4)c4c(C5CCC5)cncc4n3)ccnc2[nH]1 [Example 2144, 5-Cyclobutyl-2-[2-(2,6-difluoro-phenyl)-1H-pyrrolo[2,3-b]pyridin-4-yl]-4-piperazin-1-yl-pyrido[3,4-d]pyrimidine]
21 | < 0.1 | Fc1cccc(F)c1-c1cc2c(-c3nc(N4CCNCC4)c4c(C5CC5)cncc4n3)ccnc2[nH]1 [Example 2145, 5-Cyclopropyl-2-[2-(2,6-difluoro-phenyl)-1H-pyrroIo[2,3-b]pyridin-4-yl]-4-piperazin-1-yl-pyrido[3,4-d]pyrimidine]
22 | < 0.1 | c1cc(-c2nc(N3CCNCC3)c3c(C4CC4)cncc3n2)c2cc(C3CCC3)[nH]c2n1 [Example 2146, 2-(2-Cyclobutyl-1H-pyrrolo[2,3-b]pyridin-4-yl)-5-cyclopropyl-4-piperazin-1-yl-pyrido[3,4-d]pyrimidine]
23 | < 0.1 | FC(F)(F)COc1ccc(Nc2cc(-c3nc(N4CCNCC4)c4c(C5CC5)cncc4n3)ccn2)cc1 [Example 2150, [4-(5-Cyclopropyl-4-piperazin-1-yl-pyrido[3,4-d]pyrimidin-2-yl)-pyridin-2-yl]-[4-(2,2,2-trifluoro-ethoxy)-phenyl]-amine]
24 | < 0.1 | c1cc(-c2nc(N3CCNCC3)c3c(C4CC4)cncc3n2)c2cc(C3CCCCC3)[nH]c2n1 [Example 2152, 5-Cyclopropyl-2-(2-cyclohexyl-1H-pyrrolo[2,3-b]pyridin-4-yl)-4-piperazin-1-yl-pyrido[3,4-d]pyrimidine]
25 | < 0.1 | c1cc(-c2nc(N3CCNCC3)c3c(C4CCC4)cncc3n2)c2cc(C3CCCCC3)[nH]c2n1 [Example 2153, 5-Cyclobutyl-2-(2-cyclohexyl-1H-pyrrolo[2,3-b]pyridin-4-yl)-4-piperazin-1-yl-pyrido[3,4-d]pyrimidine]
26 | < 0.1 | FC(F)(F)c1ccc(-n2cc(Nc3cc(-c4nc(N5CCNCC5)c5c(C6CC6)cncc5n4)ccn3)c(Cl)n2)nc1 [Example 2154, [3-Chloro-1-(5-trifluoromethyl-pyridin-2-yl)-1H-pyrazol-4-yl]-[4-(5-cyclopropyl-4-piperazin-1-yl-pyrido[3,4-d]pyrimidin-2-yl)-pyridin-2-yl]-amine]
27 | 0.1 to 1 | FC(F)(F)c1cc2c(-c3nc(NC4CCNCC4(F)F)c4c(C5CC5)cncc4n3)ccnc2[nH]1 (stereo not shown) [Example 2155, [5-Cyclopropyl-2-(2-trifluoromethyl-1H-pyrrolo[2,3-b]pyridin-4-yl)-pyrido[3,4-d]pyrimidin-4-yl]-(3,3-difluoro-piperidin-4-yl)-amine]
28 | 0.1 to 1 | Fc1cnc(Nc2cc(-c3nc(NC4CCNCC4(F)F)c4c(C5CC5)cncc4n3)ccn2)c(F)c1 (stereo not shown) [Example 2156, {5-Cyclopropyl-2-[2-(3,5-difluoro-pyridin-2-ylamino)-pyridin-4-yl]-pyrido[3,4-d]pyrimidin-4-yl}-(3,3-difluoro-piperidin-4-yl)-amine]
